The CATMoS acute toxicity set (Mansouri et al. 2021)
Where a SMILES comes first, the peptide text is derived from it. [ ]: non-standard residue; d: D form. The star is where a group is joined. Sta = CC(C)C[C@H](N)[C@@H](O)CC(=O)O; Isovaleryl = CC(C)CC(=O)*

Experiment: GHS categories as the set defines them, by LD50: 1 up to 5, 2 up to 50, 3 up to 300, 4 up to 2000, 5 above 2000 mg/kg
Conditions: rat; in vivo; po

Point of comparison: N#CC1CCCC2OCC(c3ccccc3)N12 (centres undefined), GHS category 5. Against it:
- CCC1(CC)COP(=S)(N(SN(C)C(=O)ON=C(C)SC)C2CCCCC2)OC1 — the same, 5
- OC(Cc1ccccc1Cl)(Cn1[nH]cnc1=S)C1(Cl)CC1 (centres undefined) — the same, 5
- CC(=O)c1ccc2cc(CC(=O)O)ccc2c1 — the same, 5
- CCCCCCCC(=O)OCCC(C)C — the same, 5
- CN(Cc1ccc(C(C)(C)C)cc1)Cc1cccc2ccccc12 — the same, 5
- CNCc1ccc(CSCCN/C(=N/S(C)(=O)=O)NCC(O)c2ccc(O)cc2)o1 (centres undefined) — the same, 5
- CCCCCCCCCCCCCCOC(=O)Cl — the same, 5
- C[C@H]1c2cccc(O)c2C(=O)C2=C(O)[C@]3(O)C(=O)C(C(N)=O)=C(O)[C@@H](N(C)C)[C@@H]3[C@@H](O)[C@@H]21 — the same, 5
- O=C(O)c1cccc2cccc(-c3cccc4cccc(C(=O)O)c34)c12 — the same, 5
- c1ccc2oc(C3(Cn4cncn4)OCCO3)cc2c1 — lower, 4
- O=C(O)c1cc(N=Nc2ccc(N=Nc3ccc(S(=O)(=O)O)cc3)cc2)ccc1O — the same, 5
- CNC[C@@H]1CC[C@@H](N)[C@@H](O[C@H]2[C@H](O)[C@@H](O[C@H]3OC[C@](C)(O)[C@H](NC)[C@H]3O)[C@H](N)C[C@@H]2N)O1 — the same, 5
- CCCNC(=O)c1sc(-c2ccc(OC)c(OC)c2)nc1C — the same, 5
- CCC(C)(CCC(C)C)C(=O)OCC1CO1 (centres undefined) — the same, 5
- CC(C)N1CCN(C(=O)c2ccc(OC(=O)C3CCCc4ccccc43)cc2)CC1 (centres undefined) — the same, 5
- O=CC=Cc1ccco1 — lower, 4
- CC(C)=CCOc1ccc(/C=C/C(=O)c2ccc(OCC=C(C)C)cc2OCC(=O)O)cc1 — the same, 5
- CCC=CCC(C)OC(=O)c1ccccc1O (centres undefined) — the same, 5
- CCCCC(CC)COCOCC(CC)CCCC (centres undefined) — the same, 5
- CCCCCCC1CCCC1=O (centres undefined) — the same, 5
- CC1=CCC(C(C)(C)OC(=O)C(C)C)CC1 (centres undefined) — the same, 5
- CC(C)c1c(C(=O)Nc2ccccc2)c(-c2ccccc2)c(-c2ccc(F)cc2)n1CC[C@@H]1C[C@H](CC(=O)OC(C)(C)C)OC(C)(C)O1 — the same, 5
- COc1ccc2c(c1)CCN(c1ccccc1)C2c1ccc(Br)cc1 (centres undefined) — lower, 4
- C[Si](C)(CCCN)N1CCC[Si]1(C)C — lower, 4
- CCCCCCOCC(OC)OC — the same, 5
- CCCC(O)CCO (centres undefined) — the same, 5
- CCC(C)(Oc1ccc(C2(c3ccc(OC(C)(CC)C(=O)O)cc3)CCCCC2)cc1)C(=O)O (centres undefined) — the same, 5
- CCC1(CC)C(=O)N2Cc3ccccc3CN2C1=O — the same, 5
- CCCCCCCCNC(=O)c1cnc2cccc(C)n2c1=O — lower, 3
- O=C1CCc2c(OCC(O)CN3CCC(Cc4ccccc4)CC3)cccc2N1Cc1ccccc1 (centres undefined) — lower, 4
- CC(C)=CCN(CC=C(C)C)CCC(C)(C#N)c1cccc2ccccc12 (centres undefined) — lower, 4
- CC(=O)Nc1ncc([N+](=O)[O-])s1 — lower, 4
- CCCC(Cl)CCCC(Cl)CCC(Cl)CCC(Cl)CCC(Cl)CCCC(Cl)CCC (centres undefined) — the same, 5
- CC(C)(C)OOC(C)(C)C — the same, 5
- CC1=NN(c2ccccc2)C(=O)C1=CN1CCCCC1 — the same, 5
- CC(C)CC(=O)N[C@H](C(=O)N[C@H](C(=O)N[C@@H](CC(C)C)[C@@H](O)CC(=O)N[C@@H](C)C(=O)N[C@@H](CC(C)C)[C@@H](O)CC(=O)O)C(C)C)C(C)C (Isovaleryl-VV[Sta]A[Sta]-OH) — the same, 5
- NC(=O)Nc1ccc(Cl)c(Cl)c1 — lower, 4
- O=C(Cc1ccccc1)Cc1ccccc1 — the same, 5
- CCCCCCCOC(C)=O — the same, 5
- CCCC(C)C=O (centres undefined) — the same, 5
- CCCCCCCC1CCCC(=O)O1 (centres undefined) — the same, 5
- CN1OCC(=Cc2cc(C(C)(C)C)c(O)c(C(C)(C)C)c2)C1=O — lower, 4
- Cc1cc(C)c(NC(=O)c2sc(N)nc2C)c(C)c1 — lower, 4
- O=C(O)C(c1ccccc1Cl)N1CCc2sccc2C1 (centres undefined) — the same, 5
- Cc1cc(C(F)(C(F)(F)F)C(F)(F)F)ccc1NC(=O)c1cccc(I)c1C(=O)NC(C)(C)CS(C)(=O)=O — the same, 5
- COc1cc(C(=O)OCCOCCN2CCN(C(c3ccccc3)c3ccc(Cl)cc3)CC2)cc(OC)c1OC (centres undefined) — the same, 5
- COc1ccc(C(=O)Nc2ccccc2)cc1N=Nc1c(O)c(C(=O)Nc2cc(Cl)ccc2OC)cc2ccccc12 — the same, 5
- COc1ccc(N(CCCC(=O)O)C(=O)c2ccc(Cl)cc2)cc1 — the same, 5
- CCOc1nn(-c2cccc(C(F)(F)F)c2)c2ncccc12 — lower, 4
- Cc1cc(-c2ccc(N=C=O)c(C)c2)ccc1N=C=O — the same, 5
- CNC(=O)C(=NNc1ccc(Cl)cc1[N+](=O)[O-])C(C)=O — the same, 5
- CC(C)CCCCCCOC(=O)C1CCCCC1C(=O)OCCCCCCC(C)C (centres undefined) — the same, 5
- CC1N=C(c2ccccc2Cl)c2c(ccc(NC(=O)NCCO)c2Br)N(C)C1=O (centres undefined) — the same, 5
- COc1cccc(OC)c1C(=O)NC(=O)Nc1c(F)cccc1F — lower, 4
- C[N+](C)(CCO)CC(O)C[N+](C)(C)CCO — lower, 4
- CCCCCC(=O)CC — the same, 5
- COc1cc(-c2cc(OC)cc(C(C)(C)C)c2O)c(O)c(C(C)(C)C)c1 — the same, 5
- CC(=O)c1ccc(S(=O)(=O)NC(=O)NC2CCCCC2)cc1 — the same, 5
- C=CCSc1nc(N)c2c(C)coc2n1 — the same, 5
- Cn1c2cc(C(F)(F)F)ccc2c2oc(C(=O)NCCCN3CCCCC3)cc21 — lower, 4
- CCCCN(c1nc(NCCCN(CCN(CCCNc2nc(N(CCCC)C3CC(C)(C)N(C)C(C)(C)C3)nc(N(CCCC)C3CC(C)(C)N(C)C(C)(C)C3)n2)c2nc(N(CCCC)C3CC(C)(C)N(C)C(C)(C)C3)nc(N(CCCC)C3CC(C)(C)N(C)C(C)(C)C3)n2)c2nc(N(CCCC)C3CC(C)(C)N(C)C(C)(C)C3)nc(N(CCCC)C3CC(C)(C)N(C)C(C)(C)C3)n2)nc(N(CCCC)C2CC(C)(C)N(C)C(C)(C)C2)n1)C1CC(C)(C)N(C)C(C)(C)C1 — the same, 5
- CCCc1nc2ccnn2c(NCCN2CCOCC2)c1Cc1ccc(-c2ccccc2-c2nn[nH]n2)cc1 — lower, 4
- CCO[Si](CCCNC=O)(OCC)OCC — the same, 5
- C[C@@H]1O[C@@H](O[C@@H]2[C@@H](O)[C@H](OCCc3ccc(O)c(O)c3)O[C@H](CO)[C@H]2OC(=O)C=Cc2ccc(O)c(O)c2)[C@H](O)[C@H](O)[C@H]1O — the same, 5
- C[C@@H]1CN([C@H]2CC[C@](C#N)(c3ccc(F)cc3)CC2)CC[C@]1(C(=O)O)c1ccccc1 — the same, 5
- CCOC(=O)c1ccc(NC(=O)C=C(C)C=CC=C(C)C=CC2=C(C)CCCC2(C)C)cc1 — the same, 5
- Cc1cccc2ncc(C(=O)NCC(C)(C)C)c(=O)n12 — lower, 3
- CNc1ccc(C(=O)c2cccs2)cc1O — the same, 5
- O=c1nc(Cl)nc(Cl)[nH]1 — the same, 5
- CCC1(CO)COC1 — the same, 5
- COCC(=O)N(c1c(C)cccc1C)[C@H](C)C(=O)OC — lower, 4
- N#CCC(=O)c1ccccc1Cl — the same, 5
- CCCCOC(=O)CCP1(=O)Oc2ccccc2-c2ccccc21 (centres undefined) — the same, 5
- CN1C(=O)CCc2ccc(OCCCN3CCC(Cc4ccccc4)CC3)cc21 — lower, 4
- CC(C)(CO)CO — the same, 5
- NC(=O)CCNCCO — the same, 5
- O=C(O)C(=O)[C@@H](O)[C@H](O)[C@H](O)CO — the same, 5
- O=C(O)c1ccc(NC(=O)[C@H](Cc2ccc(O)cc2)NC(=O)c2ccccc2)cc1 — the same, 5
- CCCS(=O)(=O)Nc1ccc(F)c(C(=O)c2c[nH]c3ncc(Br)cc23)c1F — the same, 5
- COc1cc(OC)nc(NC(=O)NS(=O)(=O)c2c(-c3nnn(C)n3)cnn2C)n1 — the same, 5
- Nc1nc(N)nc(Nc2nc(N)nc(N)n2)n1 — the same, 5
- Cc1ccc(OP(=O)(Oc2ccccc2)Oc2ccccc2)cc1 — the same, 5
- CC(C)(C)OP(=O)(O)OC(C)(C)C — the same, 5
- C=C[Si]1(C)O[Si](C)(C=C)O[Si](C)(C=C)O[Si](C)(C=C)O1 (centres undefined) — the same, 5
- OC(c1ccccc1)c1cccnc1Cl (centres undefined) — the same, 5
- O=C1c2c(Br)c(Br)c(Br)c(Br)c2C(=O)N1CCN1C(=O)c2c(Br)c(Br)c(Br)c(Br)c2C1=O — the same, 5
- CC1=C(C(=O)O)N2C(=O)[C@@H](NC(=O)[C@H](N)C3=CCC=CC3)[C@H]2SC1 — the same, 5
- O=C1CN=C(c2ccccc2Cl)c2cc([N+](=O)[O-])ccc2N1 — the same, 5
- O=C(OCCOCCO)c1cc(O)ccc1Nc1cccc(C(F)(F)F)c1 — lower, 4
- CCCc1nc(C)c2c(=O)nc(-c3cc(S(=O)(=O)O)ccc3OCC)[nH]n12 — the same, 5
- Cc1cccc2ncc(C(=O)Nc3ccc(F)cc3)c(=O)n12 — lower, 3
- CC(C)CCCCCCCCCCOC(=O)CCCCC(=O)OCCCCCCCCCCC(C)C — the same, 5
- CCC=CCC=CCC=CCC=CCCCCC(=O)OCC — the same, 5
- CCOC(=O)C(=O)Nc1cc(SCCOCCOC)ncn1 — lower, 4
- CCO[Si](C)(CCCN)OCC — the same, 5
- CCCCCCCC(=O)OCCCCCC — the same, 5
- COP(=O)(NC(=O)C(Cl)Cl)SC (centres undefined) — lower, 4
- CSc1nc2cc(Cl)c(Oc3cccc(Cl)c3Cl)cc2[nH]1 — the same, 5
- NC1CCN(c2nc3c(cc2F)c(=O)c(C(=O)O)cn3-c2ccc(F)cc2F)C1 (centres undefined) — the same, 5
- COC(=O)c1ccccc1S(=O)(=O)NC(=O)Nc1nc(C)cc(C)n1 — the same, 5
- CCOC(=O)CNc1nc(Cl)nc(NC(C)C)n1 — the same, 5
- CC(=O)c1ccc2c(c1)OC(C)C(=O)N2C (centres undefined) — the same, 5
- O=C1NC(=O)C(N=NC2C(=O)NC(=O)NC2=O)C(=O)N1 — the same, 5
- COc1cc(/N=N/c2c(Br)cc([N+](=O)[O-])cc2[N+](=O)[O-])c(NC(C)=O)cc1N(CCOC(C)=O)CCOC(C)=O — the same, 5
- Cc1cc(C(C)(C)C)c(OP2COC3(COP(Oc4c(C(C)(C)C)cc(C)cc4C(C)(C)C)OC3)OC2)c(C(C)(C)C)c1 (centres undefined) — the same, 5
- CN1CN(C)CN(C)C1 — lower, 4
- CC1(C)S[C@@H]2[C@H](NC(=O)[C@H](N)c3ccccc3)C(=O)N2[C@H]1C(=O)OCOC(=O)[C@@H]1N2C(=O)C[C@H]2S(=O)(=O)C1(C)C — the same, 5
- Nc1nc2cc([N+](=O)[O-])ccc2o1 — lower, 4
